The source of these data is publication PMC8748775, “The sphingosine 1-phosphate receptor 2/4 antagonist JTE-013 elicits off-target effects on sphingolipid metabolism” (Scientific Reports, 2022).

One data set deals with T1, S1P lyase (Homo sapiens, UniProt O95470).
T1 construct: gene SGPL1; FLAG-tagged human S1P lyase overexpressed in HEK293T cells (whole cell lysate)
T1 sequence (O95470 1-568): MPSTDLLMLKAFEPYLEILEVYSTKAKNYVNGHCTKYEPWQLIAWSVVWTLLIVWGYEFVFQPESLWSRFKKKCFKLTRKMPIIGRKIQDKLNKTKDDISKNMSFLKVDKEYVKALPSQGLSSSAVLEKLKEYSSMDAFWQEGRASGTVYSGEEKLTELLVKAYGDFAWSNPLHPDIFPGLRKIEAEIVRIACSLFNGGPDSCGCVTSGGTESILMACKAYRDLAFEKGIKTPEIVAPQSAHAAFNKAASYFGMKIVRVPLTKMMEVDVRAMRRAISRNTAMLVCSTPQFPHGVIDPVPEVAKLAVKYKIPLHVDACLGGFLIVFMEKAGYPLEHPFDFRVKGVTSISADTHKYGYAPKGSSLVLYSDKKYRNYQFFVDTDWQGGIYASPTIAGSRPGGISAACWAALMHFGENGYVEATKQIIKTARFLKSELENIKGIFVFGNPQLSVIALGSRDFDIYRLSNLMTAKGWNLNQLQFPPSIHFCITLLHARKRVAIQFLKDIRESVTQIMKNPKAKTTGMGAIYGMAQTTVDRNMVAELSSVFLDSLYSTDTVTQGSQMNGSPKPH
In words: fluorogenic S1P lyase assay in overexpressing lysate, […] DOP. Type of data set: cell-based.

Data set [1] addresses T2, sphingosine kinase 1 (SK1) (Homo sapiens, UniProt Q9NYA1).
T2 construct: gene SPHK1; purified recombinant human SK1
The data set can be described thus: in vitro radiometric [γ-32P]ATP sphingosine kinase assay with purified enzyme. Type of data set: biochemical.

Data set [2] deals with T3, dihydroceramide desaturase 1 (Des1) (Homo sapiens, UniProt O15121).
T3 construct: gene DEGS1; Des1-FLAG (C-terminal FLAG), expressed in HEK293T cells; with cytochrome B5 (CYB5)
The data set can be described thus: HPLC NBD-C6-dhCer conversion; Ki from Des1-overexpressing HEK293T lysates, competitive inhibition confirmed with purified Des1-FLAG plus CYB5. Type of data set: biochemical.

Data set [3] concerns the target T4, sphingosine kinase 2 (SK2) (Homo sapiens, UniProt Q9NRA0).
T4 construct: gene SPHK2; purified recombinant human SK2
T4 sequence (Q9NRA0 1-654): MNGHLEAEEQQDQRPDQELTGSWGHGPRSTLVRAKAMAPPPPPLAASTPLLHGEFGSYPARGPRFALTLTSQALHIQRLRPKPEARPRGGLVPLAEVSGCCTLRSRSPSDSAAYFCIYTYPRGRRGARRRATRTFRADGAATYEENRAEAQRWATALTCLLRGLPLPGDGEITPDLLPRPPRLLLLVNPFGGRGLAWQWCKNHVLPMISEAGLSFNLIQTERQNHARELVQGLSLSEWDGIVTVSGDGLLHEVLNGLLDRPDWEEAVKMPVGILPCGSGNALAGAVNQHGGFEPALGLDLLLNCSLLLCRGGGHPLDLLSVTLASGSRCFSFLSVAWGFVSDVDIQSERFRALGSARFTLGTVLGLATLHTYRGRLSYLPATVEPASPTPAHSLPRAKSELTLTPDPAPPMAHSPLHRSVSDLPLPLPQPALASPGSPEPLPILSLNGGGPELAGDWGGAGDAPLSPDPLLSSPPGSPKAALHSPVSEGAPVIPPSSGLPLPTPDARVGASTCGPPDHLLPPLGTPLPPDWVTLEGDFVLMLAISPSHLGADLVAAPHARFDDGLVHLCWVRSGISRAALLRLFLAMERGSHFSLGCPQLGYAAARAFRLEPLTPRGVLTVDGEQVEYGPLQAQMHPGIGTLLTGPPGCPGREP
The data set can be described thus: in vitro radiometric [γ-32P]ATP sphingosine kinase assay with purified enzyme. Type of data set: biochemical.

Substrate in data set [4]: CCCCCCCCCCCCCCC[C@@H](O)[C@H](CO)NC(=O)CCCCCNc1ccc([N+](=O)[O-])c2nonc12
The data set can be described thus: HPLC conversion to NBD-C6-Cer; KM from Des1-overexpressing lysates, turnover also with purified Des1-FLAG. Type of data set: biochemical, Homo sapiens. The note with it: NADPH; iron ((NH4)2Fe(SO4)[…] in purified assay).

By IC50 is commonly meant the midpoint of a concentration-inhibition curve. Lower therefore signals inhibition by little substance. The term Ki denotes the dissociation constant of the complex between target and ligand, obtained from inhibition or displacement. The Km is the substrate concentration at which the rate is half of its maximum.

T2 sequence (Q9NYA1 whole entry): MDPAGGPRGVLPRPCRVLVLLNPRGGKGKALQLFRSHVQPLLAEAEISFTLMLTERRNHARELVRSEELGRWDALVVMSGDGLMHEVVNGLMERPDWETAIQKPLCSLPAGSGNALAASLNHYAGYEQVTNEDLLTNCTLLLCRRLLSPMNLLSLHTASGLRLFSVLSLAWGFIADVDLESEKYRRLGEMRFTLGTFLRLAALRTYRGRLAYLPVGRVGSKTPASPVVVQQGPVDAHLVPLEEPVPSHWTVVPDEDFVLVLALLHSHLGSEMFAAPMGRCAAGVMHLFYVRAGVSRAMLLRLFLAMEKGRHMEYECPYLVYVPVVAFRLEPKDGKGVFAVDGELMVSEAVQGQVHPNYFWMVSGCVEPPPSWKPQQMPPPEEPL
T3 sequence (P00167 2-134 partner, one chain of several): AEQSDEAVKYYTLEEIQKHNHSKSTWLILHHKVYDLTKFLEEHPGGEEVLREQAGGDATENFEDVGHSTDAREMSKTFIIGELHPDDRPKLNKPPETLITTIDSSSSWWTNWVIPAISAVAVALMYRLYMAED

In the case of `Cc1ncc(CO)c(C)c1O` [DOP, 4-deoxypyridoxine], the “fluorogenic S1P lyase assay in overexpressing lysate, 1.25 mM DOP” value at S1P lyase is “known S1P lyase inhibitors 4-deoxypyridoxine and FTY720 both showed inhibition of S1P lyase activity”.

As to `Cc1nn(C)c2nc(NNC(=O)Nc3c(Cl)cncc3Cl)cc(C(C)C)c12` [JTE-013], the IC50 in data set [1] stood at 25.1 ± 2.7 µM; in data set [3], 4.3 ± 0.5 µM. Moreover, in data set [2], the Ki is 9.2 ± 0.8 µM.

B1: dihydroceramide desaturase 1 (Des1) (Homo sapiens) (protein)
chain: GSRVSREDFEWVYTDQPHADRRREILAKYPEIKSLMKPDPNLIWIIIMMVLTQLGAFYIVKDLDWKWVIFGAYAFGSCINHSMTLAIHEIAHNAAFGNCKAMWNRWFGMFANLPIGIPYSISFKRYHMDHHRYLGADGVDVDIPTDFEGWFFCTAFRKFIWVILQPLFYAFRPLFINPKPITYLEVINTVAQVTFDILIYYFLGIKSLVYMLAASLLGLGLHPISGHFIAEHYMFLKGHETYSYYGPLNLLTFNVGYHNEHHDFPNIPGKSLPLVRKIAAEYYDNLPHYNSWIKVLYDFVMDDTISPYSRMKRHQKGEMVLE
notes: Des1-FLAG (C-terminal FLAG), expressed in HEK293T cells; with cytochrome B5 (CYB5)
As for B1, in data set [4], the Km is given as 0.3 µM.
